Measured values taken from paper PMC8811960, “A Novel 2-Carbon-Linked Dimeric Artemisinin With Potent Antileukemic Activity and Favorable Pharmacology” (Frontiers in Oncology, 2022).

How the values were obtained:
[1] = system: MOLM14, MV4;11, and HL60 human AML cells; set-up: method as in PMID 33560385; conditions: ART631 200 nM, VEN 50 nM, SOR 5 µM; MOLM14, MV4;11, HL60; cited from earlier work
U937 = experiment: alamarBlue growth inhibition, U937; type: cell-based; conditions: Homo sapiens, U-937, U937, 48h, mean of 2 independent assays ± SD
Procedure: (§1) Cytotoxicity was assessed using alamarBlue assays (Life Technologies, Grand Island, NY) following manufacturer’s guidelines. Cell death was verified by Annexin V/7-aminoactinomycin D (7AAD) staining (BioLegend, San Diego, CA) per manufacturer’s guidelines.

HL60 = experiment: alamarBlue growth inhibition, HL60; type: cell-based; conditions: Homo sapiens, HL-60, HL60, 48h, mean of 2 independent assays ± SD
Procedure: as §1

TF1 = experiment: alamarBlue growth inhibition, TF1; type: cell-based; conditions: Homo sapiens, TF-1, TF1, 48h, mean of 2 independent assays ± SD
Procedure: as §1

DDIT3 = experiment: qRT-PCR for DDIT3 mRNA; type: cell-based, human; conditions: MOLM14, 18h, ART631 200 nM, ART838 200 nM, AS 10 uM, similar results in MV4;11 and ML2
Procedure: Cells were pre-treated with […] ROS detection reagent 5-(and 6-)-chloromethyl-2’,7’-dichlorodihydrofluorescein diacetate (CM-H2DCFDA, Life Technologies) for 30 min, followed by the iron chelator deferoxamine mesylate (DFO; 11 mM) for 60 min. Cells were then treated with ART631 (200 nM) or DMSO control for 18h, with subsequent analysis by flow cytometry. Western blotting and quantitative reverse transcription PCR (qRT-PCR) to assess for molecular markers of ROS-mediated apoptosis were performed as previously described ([20]).
Figure 4 ART631 elevated ROS and CHOP levels and reduced MCL1 expression in MOLM14 AML cells. (A) MOLM14 AML cells were pre-treated with ROS detection reagent CM-H2DCFDA ([…]) for 30 min, pre-treated with deferoxamine mesylate (DFO; 11 mM) for 60 min, and then treated with ART631 (200 nM) or DMSO control for 18h. They were then analyzed by flow cytometry. Graph represents %CM-H2DCFDA fluorescence compared to vehicle (DMSO) control treated cells. Error bars represent SD from 3 independent experiments. (B) MOLM14 AML cells were treated for 18h with vehicle, AS (10 uM), ART838 (200 nM), ART631 (200 nM), cytarabine (AraC; 150 nM), or SOR (5 uM). Protein was isolated and western blotted for MCL1, BCL2, CHOP, and β-actin. (C) MOLM14 cells were treated as in (B) for 18h, total RNA isolated, cDNA synthesized, and SYBR Green qRT-PCR performed in triplicates. Ct values were normalized to housekeeping gene GAPDH and fold change shown relative to vehicle (DMSO) control. Error bars represent SD from 3 independent experiments done in triplicate.

K562 = experiment: alamarBlue growth inhibition, K562; type: cell-based; conditions: Homo sapiens, K562, 48h, mean of 2 independent assays ± SD
Procedure: as §1

THP1 = experiment: alamarBlue growth inhibition, THP1; type: cell-based; conditions: Homo sapiens, THP-1, THP1, 48h, mean of 2 independent assays ± SD
Procedure: as §1

MOLM14 = experiment: alamarBlue growth inhibition, MOLM14; type: cell-based; conditions: Homo sapiens, MOLM-14; MOLM14, 48h, alamarBlue, mean of 2 independent assays ± SD; read-out: IC50
Procedure: as §1
In this experiment, provided to show the entire concentration:response range, MOLM14 AML cells were cultured with a range of concentrations of artesunate (AS), ART838, ART631, and ART576 for 48h. Graph indicates growth inhibition relative to vehicle (DMSO)-treated controls by alamarBlue absorbance assays. Data points and error bars represent mean and SD of 3 independent experiments done in triplicate.

KG1a = experiment: alamarBlue growth inhibition, KG1a; type: cell-based; conditions: Homo sapiens, KG-1a, 48h, mean of 2 independent assays ± SD
Procedure: as §1

ML2 = experiment: alamarBlue growth inhibition, ML2; type: cell-based; conditions: Homo sapiens, ML-2, ML2, 48h, mean of 2 independent assays ± SD
Procedure: as §1

HEL = experiment: alamarBlue growth inhibition, HEL; type: cell-based; conditions: Homo sapiens, 48h, mean of 2 independent assays ± SD
Procedure: as §1

MV4;11 = experiment: alamarBlue growth inhibition, MV4;11; type: cell-based; conditions: Homo sapiens, MV4;11, 48h, mean of 2 independent assays ± SD
Procedure: as §1

10 human AML cell lines = experiment: alamarBlue growth inhibition, panel of 10 human AML cell lines; type: cell-based
Procedure: as §1
Cell lines with adverse risk cytogenetic and molecular features, e.g. MLL rearrangements (ML2, MOLM14, MV4;11, THP1), FLT3-ITD (MOLM14, MV4;11), TP53 mutations (KG1a, ML2, THP1, U937), and NRAS/KRAS mutations (ML2, THP1), were among those exquisitely sensitive to ART631, with IC50s < 50 nM. The K562 cell line was the only exception, as it was resistant to all 3 of these ARTs. Based on this in vitro activity data combined with the drug stability data described below, ART631 was prioritized over ART576 for further in vitro and in vivo antileukemic efficacy experiments here ( Table 2 ).

[2] = Stability in human plasma (EDTA); type: in vitro ADME; conditions: 10 µM, 37°C, 1h
Procedure: (§2) The metabolic stability of ART631 was assessed in human and mouse plasma and liver microsomes (LM). For phase I microsomal stability assays, analogs (10 µM in <1% acetonitrile) were incubated in PBS containing liver microsomes, with or without cofactors ([22]). Microsomal controls (without cofactors) were used to determine non-enzymatic degradation. All experiments were incubated at 37°C for 1h and performed in duplicate. Reactions were stopped with acetonitrile and analyzed as described below.
(§3) ART631 was extracted from 25 µL plasma or microsomal solutions with 100 µL acetonitrile containing artemisinin (i.e. the natural product) as internal standard. […] Mobile phase A was ammonium acetate (2mM) containing 0.1% formic acid, and mobile phase B was acetonitrile containing 0.1% formic acid. The gradient started with mobile phase B and was held at 40% for 0.5 minutes with a flow rate of 0.4 mL/min, then increased to 100% over 1.5 minutes and held for 2.0 minutes, and finally returned back to 40% mobile phase B and allowed to equilibrate for 2.0 minutes. An AB Sciex 5500 triple quadrupole mass spectrometer operated in positive electrospray ionization mode was used for the detection of ART631. For stability studies, the ratio of ART631 to the internal standard, artemisinin, was assessed. […]

[3] = Phase I microsomal stability, mouse liver microsomes; type: in vitro ADME
Procedure: as §2
(§4) ART631 was extracted from 25 µL plasma or microsomal solutions with 100 µL acetonitrile containing artemisinin (i.e. the natural product) as internal standard. […] Mobile phase A was ammonium acetate (2mM) containing 0.1% formic acid, and mobile phase B was acetonitrile containing 0.1% formic acid. The gradient started with mobile phase B and was held at 40% for 0.5 minutes with a flow rate of 0.4 mL/min, then increased to 100% over 1.5 minutes and held for 2.0 minutes, and finally returned back to 40% mobile phase B and allowed to equilibrate for 2.0 minutes. An AB Sciex 5500 triple quadrupole mass spectrometer operated in positive electrospray ionization mode was used for the detection of ART631. For stability studies, the ratio of ART631 to the internal standard, artemisinin, was assessed. Calibration curves for ART631 were computed using the ratio of the peak area to that of the internal standard by using a quadratic equation with a 1/x^2 weighting function over the range of 8-1585 nM with dilutions of up to 1:10 (v/v).

[4] = Phase I microsomal stability, human liver microsomes; type: in vitro ADME
Procedure: as §2, §4

[5] = Stability in mouse plasma (EDTA); type: in vitro ADME; conditions: 10 µM, 37°C, 1h
Procedure: as §2, §3

Stability in plasma = type: in vitro ADME, human and mouse; conditions: species not given
Procedure: as §2
We compared the in vitro stability of ART576 and ART631 ( Table 3 ). ART576 was stable in plasma (<10% degradation), but unstable with degradation of >70% in human liver microsomes with co-factors and >90% in mouse liver microsomes with co-factors ( Table 3 ).

[6] = system: MOLM14, MV4;11, and HL60 human AML cells; experiment: Annexin V/7-AAD cell viability and apoptosis; type: cell-based; conditions: 30-45 min pre-incubation with 10 nM QVD
Procedure: as §1
MOLM14, MV4;11, and HL60 human AML cells were assessed for cell viability and caspase-dependent apoptosis following treatment with ART631 (200 nM), VEN (50 nM), SOR (5 µM), and combinations thereof.
Figure 3 ART631-based combination treatments reduced cell viability in AML cell lines. MOLM14, MV4;11, and HL60 AML cells were each treated for 18h with vehicle (DMSO) control, ART631 alone (200 nM), VEN alone (50 nM), SOR alone (5 uM), and 2- and 3-drug combinations, all with and without a 30-45 min pre-incubation with 10 nM pan-caspase inhibitor QVD-OPh (QVD). Treated cells were stained with 2.5 ug/mL 7-aminoactinomycin D (7-AAD) and 0.5 ug/mL allophycocyanin (APC)-conjugated Annexin V in Annexin V binding buffer and analyzed by flow cytometry. Graphs indicate % cell viability based on Annexin V/7-AAD dual staining. For MOLM14 and MV4;11, means and SDs shown are based on 3 independent experiments. HL60 cell data is from one experiment done in triplicate.

[7] = 10 µM, 37°C, 1h, with cofactors
[8] = 10 µM, 37°C, 1h, without cofactors
[9] = NADPH-dependent phase I metabolism

Row | IC50 (U937) [nM] | IC50 (HL60) [nM] | IC50 (K562) [nM] | IC50 (THP1) [nM] | IC50 (MOLM14) [nM] | IC50 (MV4;11) [nM] | SMILES | IC50 (TF1) [nM] | IC50 (KG1a) [nM] | IC50 (ML2) [nM] | IC50 (HEL) [nM] | further results
1 |  |  |  |  |  |  | CC1(C)CCC(CN2CCN(c3ccc(C(=O)NS(=O)(=O)c4ccc(NCC5CCOCC5)c([N+](=O)[O-])c4)c(Oc4cnc5[nH]ccc5c4)c3)CC2)=C(c2ccc(Cl)cc2)C1 [VEN, venetoclax] |  |  |  |  | cell death as single agents [1]: less than 15%
2 | 521 ± 96 | 1060 ± 83 | > 10000 | > 10000 | 890 ± 99 | 610 ± 30 | C[C@H]1[C@H](OC(=O)CCC(=O)O)O[C@@H]2O[C@@]3(C)CC[C@H]4[C@H](C)CC[C@@H]1[C@@]24OO3 [AS, artesunate, reference compound] | 1720 ± 302 | 2600 ± 458 | 1580 ± 94 | 1110 ± 93 | DDIT3 mRNA (DDIT3): increased
3 | 23 ± 1 | 72 ± 18 | > 1000 | > 1000 | 43 ± 7 | 38 ± 10 | C[C@@H]1CCC2[C@@H](C)[C@@H](C(=O)C[C@H]3O[C@@H]4O[C@@]5(C)CCC6[C@H](C)CCC([C@H]3C)[C@]64OO5)O[C@@H]3O[C@@]4(C)CCC1[C@@]23OO4 (stereo partly shown) [ART576] | 49 ± 12 | 64 ± 4 | 105 ± 12 | 80 ± 19 | number of human AML cell lines whose growth was inhibited (10 human AML cell lines; of 10 human AML cell lines tested): 8; IC50 (10 human AML cell lines; range over the inhibited cell lines of 10 human AML cell lines, read-out: IC50 range): 23 to 105 nM; percentage remaining, Plasma (EDTA) Human [2]: 91%; percentage remaining, Phase I Metabolism MLM NADPH(+) [3, 7]: 7%; percentage remaining, Phase I Metabolism MLM NADPH(-) [3, 8]: 96%; degradation in mouse liver microsomes with co-factors [3, 9]: > 90%; percentage remaining, Phase I Metabolism HLM NADPH(+) [4, 7]: 26%; percentage remaining, Phase I Metabolism HLM NADPH(-) [4, 8]: 89%; degradation in human liver microsomes with co-factors [4, 9]: > 70%; percentage remaining, Plasma (EDTA) Mouse [5]: 101%; degradation in plasma (Stability in plasma): < 10%
4 |  |  |  |  |  |  | CC(C)[C@H](NC(=O)c1ccc2ccccc2n1)C(=O)N[C@@H](CC(=O)O)C(=O)COc1c(F)cccc1F [QVD-OPh] |  |  |  |  | effect of pre-treatment on apoptosis and cell death for all drugs and combinations [6]: almost fully inhibited
